As a reminder, the melting point is the temperature, or range, at which the solid turns liquid.

`CC(C)Cn1nc(-c2ccc(F)c(F)c2)cc(CN2CCNCC2)c1=O.Cl.Cl` registered a melting point of 182.5 to 186 °C.

Take `CC(C)Cn1nc(-c2ccc(F)c(F)c2)cc(CN2CCN(C)CC2)c1=O.Cl.Cl`: the melting point lay within 242.5 to 243.4 °C.

For `Cc1cc(-c2cc(CN3CCNCC3)c(=O)n(Cc3ccccc3)n2)ccc1F.Cl.Cl`, the melting point was 162.7 to 180.7 °C (dec.).

With `Cc1cc(-c2cc(CN3CCN(C)CC3)c(=O)n(Cc3ccccc3)n2)ccc1F.Cl.Cl`, the melting point is 240 to 242.5 °C (dec.).

Molecule `Cc1cc(-c2cc(CN(C)C)c(=O)n(Cc3ccccc3)n2)ccc1F.Cl` returned a melting point of 225.3 to 226 °C.

Turning to `Cc1cc(-c2cc(CN3CCNCC3)c(=O)n(CC=Cc3ccccc3)n2)ccc1F.Cl.Cl`, the melting point was 171.1 to 187.1 °C (dec.).

`Cc1cc(-c2cc(CN3CCN(C)CC3)c(=O)n(CC=Cc3ccccc3)n2)ccc1F.Cl.Cl` yielded a melting point of 236.1 to 237.1 °C.

With `Cc1cc(-c2cc(CN3CCNCC3)c(=O)n(CC=Cc3ccc(Cl)cc3)n2)ccc1F.Cl.Cl`, the melting point is 186.7 to 197 °C (dec.).

Take `CSc1ccc(-c2cc(CN3CCNCC3)c(=O)n(CC(C)C)n2)cc1.Cl.Cl`: the melting point is 248.5 to 253.7 °C (dec.).

On to `CN1CCN(Cc2cc(-c3ccc([S+](C)[O-])cc3)nn(CC3CC3)c2=O)CC1.Cl.Cl` (stereo not drawn), for which the melting point was 80 °C (dec.).

For `Cc1c(-c2ccc([S+](C)[O-])cc2)nn(CC(C)C)c(=O)c1N1CCN(C)CC1.Cl.Cl` (stereo not drawn), the melting point is 224.5 to 229.1 °C (dec.).

`CC(C)Cn1nc(-c2ccc([S+](C)[O-])cc2)cc(CN(C)C)c1=O.Cl` (stereo not drawn) yielded a melting point of 204.2 to 206 °C.

For the molecule `CN1CCN(Cc2cc(-c3ccc(S(C)(=O)=O)cc3)nn(CC3CC3)c2=O)CC1.Cl.Cl`, the melting point lay within 209 to 211.4 °C.

In the case of `Cc1c(-c2ccc(S(C)(=O)=O)cc2)nn(CC2CC2)c(=O)c1N(C)C.Cl`, the melting point was in the range of 239.5 to 240.7 °C.

Regarding `CC(C)Cn1nc(-c2ccc(S(C)(=O)=O)cc2)cc(CN(C)C)c1=O.Cl`, the melting point was in the range of 221.4 to 223.3 °C.

In the case of `Cc1ccc(-c2cc(CN3CCNCC3)c(=O)n(CC(C)C)n2)cc1F.Cl.Cl`, the melting point was 186.2 to 195 °C (dec.).

In turn, `Cc1cc(-c2cc(CN)c(=O)n(Cc3ccccc3Cl)n2)ccc1F.Cl` returned a melting point of 201.9 to 206.4 °C.

As to `COc1ccc(-c2cc(CN3CCNCC3)c(=O)n(CC(C)C)n2)cc1F.Cl.Cl`, the melting point is 163 to 177 °C (dec.).

Turning to `COc1ccc(-c2cc(CN3CCN(C)CC3)c(=O)n(CC(C)C)n2)cc1F.Cl.Cl`, the melting point lay in the range of 236.9 to 237 °C.

In the case of `Cc1c(-c2ccccc2)nn(CC(C)C)c(=O)c1N1CCNCC1.Cl.Cl`, the melting point lay within 154.3 to 159.5 °C.

In turn, `Cc1c(-c2ccccc2)nn(CC(C)C)c(=O)c1N1CCN(C)CC1.Cl.Cl` displayed a melting point of 243.8 to 244.3 °C.

On to `Cc1ccc(-c2cc(CN3CCN(C)CC3)c(=O)n(CC(C)C)n2)cc1F.Cl.Cl`, for which the melting point is 248.5 to 252 °C (dec.).

Regarding `CC(C)Cn1nc(-c2ccccc2)cc(CN(C)C)c1=O.Cl`, the melting point fell in the range of 221.7 to 222.3 °C.

In the case of `CC(C)Cn1nc(-c2ccc(C(F)(F)F)cc2)cc(CN2CCNCC2)c1=O.Cl.Cl`, the melting point was 210.8 to 212.5 °C.

Take `CC(C)Cn1nc(-c2ccc(C(F)(F)F)cc2)cc(CN(C)C)c1=O.Cl`: the melting point lay within 242.2 to 242.3 °C.

The molecule `CC(C)Cn1nc(-c2ccc(-c3ccccc3)cc2)cc(CN2CCN(C)CC2)c1=O.Cl.Cl` yielded a melting point of 262.2 to 263.6 °C.

On to `Cc1c(-c2ccc(-c3ccccc3)cc2)nn(CC(C)C)c(=O)c1N(C)C.Cl`, for which the melting point lay in the range of 243.9 to 244.1 °C.

As for `COc1ccc(-c2cc(CN3CCN(C)CC3)c(=O)n(CC(C)C)n2)cc1Cl.Cl.Cl`, the melting point lay in the range of 235.8 to 236.7 °C.

The molecule `COc1ccc(-c2cc(CN(C)C)c(=O)n(CC(C)C)n2)cc1Cl.Cl` had a melting point of 213.6 to 214.3 °C.

Take `CNCc1cc(-c2ccc(OC)c(F)c2)nn(CC2CC2)c1=O`: the melting point was in the range of 169.1 to 170.7 °C.

For the origin of these results see patent publication US6861428B2, “Water-soluble phenylpyridazine compounds and compositions containing the same” (Kowa Co., Ltd., priority 2001, dated 2005).
